One may read the IC50 as the point on the concentration scale where inhibition reaches its midpoint. Higher therefore signals a need for much substance.

One assay has as its target T1, α4β1 integrin (Homo sapiens, UniProt P05556+P13612).
T1 construct: a T-cell line, Jurkat, known to express the α4β1 integrin; host or cells: Jurkat T-cell line
Nature of the assay: Jurkat-Endothelial Cell Adhesion Assay (Jurkat EC). In kind it is cell-based. To be noted: Jurkat cell adhesion to IL-1 stimulated endothelial cell monolayers. The method, then: The following assay established the activity of the present compounds in inhibiting β1-mediated cell adhesion in a representative in vitro system. This assay measures the adhesive interactions of a T-cell line, Jurkat, known to express the α4β1 integrin, to endothelial monolayers in the presence of test compounds. The test compounds were added in increasing concentrations to T-cells and then the T-cell compound mixture was added to IL-1 stimulated endothelial cell monolayers. The plates were incubated, washed and the percentage of attached cells was quantitated.
Human umbilical vein endothelial cells were purchased from Clonetics (San Diego, CA.) at passage number 2. The cells were grown on 0.5% porcine skin gelatin pre-coated flasks (Sigma, St. Louis MO.) in EGM-UV media (Clonetics, San Diego, CA) supplemented with 10% fetal bovine serum. Cells are refed every 2-3 days reaching confluence by day 4 to 6. […] The endothelial cells are not used following passage 6.
The T-cell line Jurkat was obtained from American Type Tissue Culture Collection (Rockville, MD) and the cells were cultured in RPMI containing 10 % fetal calf serum. The cells were washed twice in Hank's Balanced Salt Solution (HBSS) and resuspended in Dulbecco's Minimal Eagle's Media (DMEM) containing 2.5 mg/ml Human Serum Albumin (HSA). Jurkat cells (1x10^6 cells/ml) were stained with 10 ng/ml BCECF-AM (Molecular Probes, Eugene, OR)) in HBSS without phenol red. The cells were loaded with BCECF for 60 minutes in the dark at 37°C, washed 2 times, and resuspended in DMEM-HSA solution.
Confluent endothelial monolayers, grown in 96-well tissue culture plates, were stimulated for 4 hr. at 37 °C with 0.1 ng/ml (∼50 U/ml) recombinant IL-1 (Amgen, Thousand Oaks, CA). Following this incubation, the monolayers were washed twice with HBSS and 0.1 ml of DMEM-HSA solution was added. Jurkat cells (5 x 10^5 cells) were combined with the appropriate concentration of the test compound and 0.1 ml of the Jurkat cell-compound mixture was added to the endothelial cell monolayers. Generally, 100, 20, 5 and 1.25 µM compound concentrations were tested. […] Following this incubation, the monolayers were washed twice with PBS containing 1 mM calcium chloride and 1 mM magnesium chloride' and the plates were read using a Millipore Cytofluor 2300 (Marlboro, MA.). Fluorescence in each well was measured as Arbitrary Fluorescence Units and percent adhesion in the absence of compound was adjusted to 100% and the % adhesion in the presence of compound was calculated. Monolayers were also fixed in 3% paraformaldehyde and evaluated microscopically to verify the adhesion. This procedure is a modification of a previously published method (Cardarelli et al., J. Biol. Chem. 269:18668-18673 (1994)).

For another assay, the target named is T2, α4β1 (Homo sapiens, UniProt P05556+P13612).
T2 construct: 100 µl of Jurkat cells (2.5 x 10^6 cells/ml) in DMEM plus BSA; host or cells: Jurkat T-cell line
Nature of the assay: Jurkat-CS-1 assay. Format: cell-based. To be noted: Jurkat cell adhesion to immobilized CS-1 derived peptide. On the procedure: The CS-1 derived peptide, CLHPGEILDVPST, and the scrambled control peptide, CLHGPIELVSDPT, were synthesized on a Beckman 990 synthesizer using t-Boc methodology. The peptides were immobilized onto microtiter plates using the heterobifunctional crosslinker 3-(2-pyridyldithio)propionic acid N-hydroxysuccinimide ester (SPDP) as reported by Pierschbacher et al., Proc. Natl. Acad. USA, 80:1224-1227 (1983). Microtiter plates were coated with 20 µg/ml HSA for 2 hr. at room temperature, washed once with PBS and derivatized with 10 µg/ml SPDP for 1 hr. After washing, 100 µl of a 100 µg/ml cysteine containing peptide solution which had been recently dissolved was added to the wells and allowed to crosslink to the plates overnight at 4 °C. Unbound peptide was removed from plates by washing with PBS. To block non-reacted sites, the plates are coated with 100 µl of a 2.5 mg/ml BSA solution in PBS for 1 hr. at 37 °C. 100 µl of Jurkat cells (2.5 x 10^6 cells/ml) in DMEM plus BSA (2.5 mg/ml) was mixed with an appropriate concentration of the compound to be tested and the mixture was added to peptide coated dishes and incubated for 1 hr. at 37 °C. Generally 100, 20, 5 and 1.25 µM concentrations of the compound were tested.
Following this incubation the plates were washed once with PBS and the attached cells were fixed with 3% paraformaldehyde in PBS and stained with 0.5% toluidine blue in 3.7% formaldehyde. The cells were stained overnight at room temperature and the optical density at 590 nm of toluidine blue stained cells was determined using a vertical pathway spectrophotometer to quantitate attachment (VMAX Kinetic Microplate Reader, Molecular Devices, Menlo Park, CA). This procedure is a modification of a previously published method (Cardarelli et al, J. Biol. Chem., 269:18668-18673 (1994) and Cardarelli et al, Proc. Natl. Acad. Sci. USA, 83:2647-2651 (1986)).

T1 sequence (P13612 34-1032): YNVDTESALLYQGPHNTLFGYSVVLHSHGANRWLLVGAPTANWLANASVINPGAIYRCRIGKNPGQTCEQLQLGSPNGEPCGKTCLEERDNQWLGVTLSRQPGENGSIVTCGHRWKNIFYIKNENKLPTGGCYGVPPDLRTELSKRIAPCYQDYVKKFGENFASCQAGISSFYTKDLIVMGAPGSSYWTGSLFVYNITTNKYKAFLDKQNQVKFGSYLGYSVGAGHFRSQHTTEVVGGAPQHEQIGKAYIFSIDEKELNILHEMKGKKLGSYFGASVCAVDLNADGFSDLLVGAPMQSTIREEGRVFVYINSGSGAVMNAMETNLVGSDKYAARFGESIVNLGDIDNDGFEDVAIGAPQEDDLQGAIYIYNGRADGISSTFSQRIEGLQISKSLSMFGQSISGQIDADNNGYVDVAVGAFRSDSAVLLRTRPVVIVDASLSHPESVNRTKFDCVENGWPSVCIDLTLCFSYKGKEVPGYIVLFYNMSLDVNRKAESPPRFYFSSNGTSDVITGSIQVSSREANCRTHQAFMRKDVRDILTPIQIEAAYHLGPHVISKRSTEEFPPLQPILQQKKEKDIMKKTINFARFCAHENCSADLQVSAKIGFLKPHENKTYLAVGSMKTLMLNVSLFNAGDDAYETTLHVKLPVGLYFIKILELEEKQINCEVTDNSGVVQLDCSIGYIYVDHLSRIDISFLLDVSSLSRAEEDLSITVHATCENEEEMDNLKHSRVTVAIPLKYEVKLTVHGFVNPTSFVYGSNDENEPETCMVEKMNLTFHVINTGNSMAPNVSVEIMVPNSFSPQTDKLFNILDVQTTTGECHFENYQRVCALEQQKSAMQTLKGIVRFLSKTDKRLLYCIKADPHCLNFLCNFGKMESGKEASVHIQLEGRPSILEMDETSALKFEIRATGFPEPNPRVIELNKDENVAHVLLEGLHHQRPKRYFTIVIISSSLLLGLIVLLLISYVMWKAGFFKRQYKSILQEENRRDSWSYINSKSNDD
T1 sequence (P05556 21-798): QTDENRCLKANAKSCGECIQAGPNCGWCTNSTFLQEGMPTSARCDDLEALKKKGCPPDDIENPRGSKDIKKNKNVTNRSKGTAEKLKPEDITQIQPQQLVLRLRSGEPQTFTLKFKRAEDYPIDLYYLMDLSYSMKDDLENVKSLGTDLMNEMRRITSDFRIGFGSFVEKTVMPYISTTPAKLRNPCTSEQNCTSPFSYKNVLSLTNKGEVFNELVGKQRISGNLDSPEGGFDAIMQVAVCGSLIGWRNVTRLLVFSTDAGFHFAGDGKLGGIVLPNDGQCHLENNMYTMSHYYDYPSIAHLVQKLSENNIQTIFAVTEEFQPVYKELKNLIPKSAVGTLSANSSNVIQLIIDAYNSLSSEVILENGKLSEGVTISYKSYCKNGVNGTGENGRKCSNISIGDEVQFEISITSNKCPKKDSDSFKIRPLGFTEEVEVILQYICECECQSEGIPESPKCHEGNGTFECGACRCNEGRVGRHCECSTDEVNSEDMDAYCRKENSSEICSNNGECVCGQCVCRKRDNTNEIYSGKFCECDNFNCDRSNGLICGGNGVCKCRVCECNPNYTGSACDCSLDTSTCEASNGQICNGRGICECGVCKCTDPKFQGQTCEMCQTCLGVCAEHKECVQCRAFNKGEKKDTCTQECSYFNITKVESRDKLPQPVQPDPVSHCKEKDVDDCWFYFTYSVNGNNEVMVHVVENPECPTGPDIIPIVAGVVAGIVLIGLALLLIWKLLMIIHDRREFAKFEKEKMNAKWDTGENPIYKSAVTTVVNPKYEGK
T2 sequence (P13612 34-1032): as the sequence (P13612 34-1032) above
T2 sequence (P05556 21-798): as the sequence (P05556 21-798) above

Regarding `O=C(Nc1ccc(C[C@H](NC(=O)[C@H]2CC[C@@H](C(=O)O)C2)C(=O)O)cc1)c1c(Cl)cccc1Cl` (mixture of isomers) [Example 112, N-[cis-(3-Carboxycyclopentyl)carbonyl]-4-[(2,6-dichlorobenzoyl)amino]-L-phenylalanine], the 50% inhibitory concentration (IC50) against α4β1 integrin is 800 to 5000 nM; against α4β1, 80 to 500 nM.

As to `O=C(O)c1cccc(C(=O)N[C@H]2CCCC[C@H]2C(=O)N[C@@H](Cc2ccc(NC(=O)c3c(Cl)cccc3Cl)cc2)C(=O)O)n1` (relative stereo) [Example 80], the results for the concentration for half-maximal inhibition (IC50) against α4β1 integrin and against α4β1 were 800 to 5000 nM and 80 to 500 nM, respectively.

For `CC1(C)[C@@H](C(=O)N[C@@H](Cc2ccc(OCc3c(Cl)cccc3Cl)cn2)C(=O)O)C[C@H]1C(=O)O` (relative stereo) [Example 109, [1S-[1α(R*),3α]]-α-[[(3-Carboxy-2,2-dimethylcyclobutyl)carbonyl]amino]-3-[(2,6-dichlorophenyl)methoxy]-6-pyridinepropanoic acid], on α4β1 integrin, the 50% inhibitory concentration (IC50) was in the range of 800 to 5000 nM.

In turn, `O=C(N[C@@H](Cc1ccc(NC(=O)c2c(Cl)cccc2Cl)cc1)C(=O)O)c1ccc(O)c(CN2CCOCC2)c1` [Example 4] displayed an IC50 at α4β1 integrin of 800 to 5000 nM.

In turn, `O=C(Nc1ccc(CC(NC(=O)C2CCCCC2C(=O)O)C(=O)O)cc1)c1c(Cl)cccc1Cl` (stereo not shown) [Example 8] registered a 50% inhibitory concentration (IC50) at α4β1 integrin of 800 to 5000 nM.

Take `O=C(Nc1ccc(C[C@H](NC(=O)N2CCCC[C@H]2C(=O)O)C(=O)O)cc1)c1c(Cl)cccc1Cl` [Example 11]: on α4β1 integrin, the IC50 was 5000 to 10000 nM.

Regarding `O=C(COc1ccc(C(=O)O)cc1)N[C@@H](Cc1ccc(NC(=O)c2c(Cl)cccc2Cl)cc1)C(=O)O` [Example 12, N-[(4-carboxyphenoxy)acetyl]-4-[(2,6-dichlorobenzoyl)amino]-L-phenylalanine], at α4β1, the IC50 is 500 to 1000 nM.

As for `CC(Oc1cccc(C(=O)O)c1)C(=O)N[C@@H](Cc1ccc(NC(=O)c2c(Cl)cccc2Cl)cc1)C(=O)O` (stereo partly shown) [Example 14], the IC50 against α4β1 integrin lay in the range of 800 to 5000 nM.

`CC(C)(Oc1cccc(C(=O)O)c1)C(=O)N[C@@H](Cc1ccc(NC(=O)c2c(Cl)cccc2Cl)cc1)C(=O)O` [Example 15] registered a 50% inhibitory concentration (IC50) on α4β1 integrin of 800 to 5000 nM.

For the molecule `O=C(O)c1cccc(OC(C(=O)N[C@@H](Cc2ccc(NC(=O)c3c(Cl)cccc3Cl)cc2)C(=O)O)c2ccccc2)c1` (stereo partly shown) [Example 16], the IC50 on α4β1 integrin lay in the range of 800 to 5000 nM.

At α4β1 integrin, `CC(=O)c1cccc(OC(C)C(=O)N[C@@H](Cc2ccc(NC(=O)c3c(Cl)cccc3Cl)cc2)C(=O)O)c1` (stereo partly shown) [Example 18] came in with an IC50 of 800 to 5000 nM.

Regarding `CC(Oc1cccc(/C=C/C(=O)O)c1)C(=O)N[C@@H](Cc1ccc(NC(=O)c2c(Cl)cccc2Cl)cc1)C(=O)O` (stereo partly shown) [Example 21], the IC50 against α4β1 integrin was in the range of 5000 to 10000 nM.

For the molecule `CC(C)(Oc1cccc(/C=C/C(=O)O)c1)C(=O)N[C@@H](Cc1ccc(NC(=O)c2c(Cl)cccc2Cl)cc1)C(=O)O` [Example 22], the IC50 on α4β1 integrin was 800 to 5000 nM.

On to `CC(Sc1ccccc1C(=O)O)C(=O)N[C@@H](Cc1ccc(NC(=O)c2c(Cl)cccc2Cl)cc1)C(=O)O` (stereo partly shown) [Example 24], for which, on α4β1 integrin, the IC50 lay within 5000 to 10000 nM.

On to `CC(Oc1ccccc1C(=O)O)C(=O)N[C@@H](Cc1ccc(NC(=O)c2c(Cl)cccc2Cl)cc1)C(=O)O` (stereo partly shown) [Example 28], for which, at α4β1 integrin, the concentration for half-maximal inhibition (IC50) was in the range of 800 to 5000 nM.

In turn, `O=C(O)CNC(=O)Nc1cccc(C(=O)N[C@@H](Cc2ccc(NC(=O)c3c(Cl)cccc3Cl)cc2)C(=O)O)c1` [Example 33, N-[3-[(N'-Carboxymethyl)ureido]benzoyl]-4-[(2,6-dichlorobenzoyl)amino]-L-phenylalanine] showed a half-inhibitory concentration (IC50) on α4β1 of 80 to 500 nM.

In the case of `O=C(O)CCC(=O)Nc1cccc(C(=O)N[C@@H](Cc2ccc(NC(=O)c3c(Cl)cccc3Cl)cc2)C(=O)O)c1` [Example 34], the IC50 on α4β1 is 500 to 1000 nM.

Molecule `CC(=O)CCC(=O)Nc1cccc(C(=O)N[C@@H](Cc2ccc(NC(=O)c3c(Cl)cccc3Cl)cc2)C(=O)O)c1` [Example 39] displayed a half-inhibitory concentration (IC50) on α4β1 of 500 to 1000 nM.

Molecule `O=C(N[C@@H](Cc1ccc(NC(=O)c2c(Cl)cccc2Cl)cc1)C(=O)O)c1cccc(NC(=O)c2ccccc2C(=O)O)c1` [Example 41] gave an IC50 against α4β1 integrin of 5000 to 10000 nM.

For the molecule `O=C(O)c1cccc(C(=O)Nc2cccc(C(=O)N[C@@H](Cc3ccc(NC(=O)c4c(Cl)cccc4Cl)cc3)C(=O)O)c2)c1` [Example 42], the IC50 on α4β1 was in the range of 500 to 1000 nM.

Consider `O=C(O)CNC(=O)NC1(C(=O)N[C@@H](Cc2ccc(NC(=O)c3c(Cl)cccc3Cl)cc2)C(=O)O)CCCCC1` [Example 54], for which the IC50 on α4β1 was 500 to 1000 nM.

`O=C(Nc1ccc(C(=O)O)cc1)NC1(C(=O)N[C@@H](Cc2ccc(NC(=O)c3c(Cl)cccc3Cl)cc2)C(=O)O)CCCCC1` [Example 60] registered a half-maximal inhibitory concentration (IC50) against α4β1 of 500 to 1000 nM.

As for `CC1(C)[C@H](CC(=O)N[C@@H](Cc2ccc(NC(=O)c3c(Cl)cccc3Cl)cc2)C(=O)O)C[C@@H]1C(=O)O` [Example 90, (1S-cis)-N-[(3-Carboxy-2,2-dimethylcyclobutyl)acetyl]-4-[(2,6-dichlorobenzoyl)amino]-L-phenylalanine], the half-inhibitory concentration (IC50) against α4β1 integrin was in the range of 5000 to 10000 nM.

Consider `CC(O)[C@@H]1C[C@H](CC(=O)N[C@@H](Cc2ccc(NC(=O)c3c(Cl)cccc3Cl)cc2)C(=O)O)C1(C)C` (stereo partly drawn) [Example 92, [1R-(1α,3α)]-4-[(2,6-Dichlorobenzoyl)amino]-N-[[3-(1-hydroxyethyl)-2,2-dimethylcyclobutyl]acetyl]-L-phenylalanine], for which the IC50 against α4β1 integrin is 800 to 5000 nM.

With `CC1(C)[C@@H](C(=O)N[C@@H](Cc2ccc(OCc3c(Cl)cccc3Cl)cc2)C(=O)O)C[C@H]1C(=O)O` [Example 95, (1S-cis)-N-[(3-Carboxy-2,2-dimethylcyclobutyl)carbonyl]-4-[(2,6-dichlorophenyl)methoxy]-L-phenylalanine], the IC50 at α4β1 was in the range of 500 to 1000 nM.

As for `CC1(C)[C@@H](C(=O)N[C@@H](Cc2ccc(NC(=O)c3ccc(Cl)nc3Cl)cc2)C(=O)O)C[C@H]1C(=O)O` [Example 108, (1S-cis)-N-[(3-Carboxy-2,2-dimethylcyclobutyl)carbonyl] -4-[[(2,6-dichloro-3-pyridinyl)carbonyl]amino]-L-phenylalanine], the IC50 against α4β1 integrin lay within 800 to 5000 nM.

As for `O=C(Nc1ccc(C[C@H](NC(=O)N2CCC(C(=O)O)CC2)C(=O)O)cc1)c1c(Cl)cccc1Cl` [Example 113, 1-[[[(1S)-1-carboxy-2-[4-[(2,6-dichlorobenzoyl)amino]phenyl]ethyl]amino]carbonyl]-4-piperidinecarboxylic acid], the half-maximal inhibitory concentration (IC50) on α4β1 integrin fell in the range of 800 to 5000 nM.

For the molecule `CC1=C(C(=O)O)C(C)(C)CC/C1=C\C(=O)N[C@@H](Cc1ccc(NC(=O)c2c(Cl)cccc2Cl)cc1)C(=O)O` [Example 121, N-[(1E)-3-Carboxy-2,4,4-trimethyl-2-cyclohexen-1-ylideneacetyl]-4-[(2,6-dichlorobenzoyl)amino]-L-phenylalanine], on α4β1 integrin, the IC50 was 800 to 5000 nM.

At α4β1 integrin, `O=C(/C=C1/CCCc2c(C(=O)O)cccc21)N[C@@H](Cc1ccc(NC(=O)c2c(Cl)cccc2Cl)cc1)C(=O)O` [Example 137, N-[(1Z)-5-Carboxy-3,4-dihydro-1(2H)-naphthalenylideneacetyl]-4-[(2,6-dichlorobenzoyl)amino] -L-phenylalanine] registered a concentration for half-maximal inhibition (IC50) of 5000 to 10000 nM.

Source of the values: EP1144365B1 (TANABE SEIYAKU CO., LTD., priority 1998, dated 2000).
